Laboratory results reported in patent US20090324508A1, “Broad Spectrum and Skin Friendly Disinfecting Composition” (CENTENNIAL VENTURES B.V., priority 2006, published 2009).

Assay: Foam test, dispensing from a foam dispenser
Type: physicochemical
Settings: in the presence of an alcohol
Experimental: Preferably, the foam booster used in the composition of the invention provides a stable foam when dispensing a composition consisting of 36% (w/w) ethanol and 0.2% (w/w), preferably 0.3% (w/w), of the foam booster from a foam dispenser with a relatively high air to liquid ratio, preferably an air to liquid ratio of 9-11, more preferably an air to liquid ratio of 11, on an inert and smooth surface at about 20° C. A suitable foam pump is for instance the L11 foam pump from Rexam Airspray, which has an air to liquid ratio of 11, a liquid output volume of 0.75 ml, a stroke of 14.8 mm. The foam is optimally produced by applying regular speed and pressure onto the foam dispenser, as is known to one skilled in the art.
According to this invention, a stable foam is a foam that remains as a foam for at least 5-10 seconds, preferably for at least 10-15 seconds, more preferably for at least 15-20 seconds, even more preferably for at least 20-25 seconds, most preferably for at least 25-30 seconds, as measured immediately after dispensing from a foam dispenser as mentioned above.

Compound	Foam stability as foam booster
sodium lauryl ether sulphate	do not provide a stable foam
CCCCCCCCCCCCc1ccc(S(=O)(=O)O)cc1 [dodecyl benzene sulphonic acid]	do not provide a stable foam
